Test results: US9340517B2, “Methods of modulating the activity of the MC5 receptor and treatment of conditions related to this receptor” (Mimetica PTY LTD, priority 2008, dated 2016)

Tested on: not given
Experiment: not given
Settings: oral, after 8-12 weeks of therapy; cited from earlier work

SMILES | reduction of sebum excretion
CC1=C(/C=C/C(C)=C/C=C/C(C)=C\C(=O)O)C(C)(C)CCC1 [isotretinoin, 13-cis-retinoic acid] | up to 90%

Same assay, conditions: oral, by 2 weeks; cited from earlier work

SMILES | reduction of sebum excretion
CC1=C(/C=C/C(C)=C/C=C/C(C)=C\C(=O)O)C(C)(C)CCC1 [isotretinoin, 13-cis-retinoic acid] | 60-70%

Target: human MC5R (Homo sapiens (Human), UniProt P33032)
Experiment: Human MC5R radioligand binding assay ([125I] NDP-MSH displacement, membranes)
Settings: not given
Protocol: Assessments of compound binding to human MC5R (hMC5R)) by displacement of an ^125I-labeled NDP-MSH receptor ligand peptide were performed essentially as described in the data sheets produced by Perkin Elmer to accompany their frozen hMC5R membranes (Perkin Elmer catalog number RBXMC5M400UA).
Na^125I (0.5 mCi, 17.4 Ci/mg) was added to 50 μL sodium phosphate (50 mM, pH 7.4) in an eppendorf tube precoated with IODOGEN. After incubation for 10 mins the phosphate buffer containing the iodine was added to NDP-MSH (10 ul at 1 mg/mL) in a separate eppendorf tube. This was incubated for a further 10 mins. The iodinated NDP-MSH was purified by HPLC on a Zorbax SB 300 column using solvent A: 0.05% TFA and solvent B: 90% acetonitrile 0.045% TFA with a linear gradient, 0-67% B over 60 mins.
Perkin Elmer frozen hMC5 membranes: catalog number RBXMC5M400UA, 0.4 mL/vial; 400 microassays/vial, 0.78 mg/mL protein concentration
Vials of frozen membranes were thawed rapidly immediately before use, diluted with binding buffer and vortexed. Resuspended membranes were kept on ice until they were added to the wells of the plate.
Assays were performed in 96 well polypropylene plates. […] This was incubated for 1 hr at 37° C.

Sequence of human MC5R (P33032 whole entry): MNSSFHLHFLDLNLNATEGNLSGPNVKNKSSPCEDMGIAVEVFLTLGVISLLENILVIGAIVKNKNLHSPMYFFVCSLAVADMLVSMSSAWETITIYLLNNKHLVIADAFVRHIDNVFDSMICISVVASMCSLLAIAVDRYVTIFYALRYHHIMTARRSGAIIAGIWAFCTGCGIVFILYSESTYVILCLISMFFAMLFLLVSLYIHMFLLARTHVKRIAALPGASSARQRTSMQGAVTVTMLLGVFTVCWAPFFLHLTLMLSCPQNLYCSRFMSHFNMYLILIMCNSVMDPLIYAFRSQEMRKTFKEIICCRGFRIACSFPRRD

IC50 [nM] | SMILES
< 1000 | O=C(NCC1CCN(CC(c2ccccc2)c2ccccc2)C(=O)C(C2CCNCC2)N1)c1ccc2ccccc2c1 (racemic) [Compound 197, N-((1-(2,2-diphenylethyl)-2-oxo-3-(piperidin-4-yl)-1,4-diazepan-5-yl)methyl)-2-naphthamide]
< 1000 | O=C(NCC1CCN(CC(c2ccccc2)c2ccccc2)C(=O)C(CC2CCNCC2)N1)c1ccc2ccccc2c1 (racemic) [Compound 198, N-((1-(2,2-diphenylethyl)-2-oxo-3-(piperidin-4-ylmethyl)-1,4-diazepan-5-yl)methyl)-2-naphthamide]
< 1000 | CC[C@H](CN1CC[C@@H](CNC(=O)Cc2ccc(Cl)cc2Cl)N[C@@H](CCN2CCCCC2)C1=O)c1ccccc1 [Compound 540, 2-(2,4-dichlorophenyl)-N-(((3S,5S)-2-oxo-1-((S)-2-phenylbutyl)-3-(2-(piperidin-1-yl)ethyl)-1,4-diazepan-5-yl)methyl)acetamide]
< 100 | CC[C@H](CN1CC[C@@H](CNC(=O)c2ccc3cc(Cl)ccc3c2)N[C@H](CCN2CCCCC2)C1=O)c1ccccc1 [Compound 582, 6-chloro-N-(((3R,5S)-2-oxo-1-((S)-2-phenylbutyl)-3-(2-(piperidin-1-yl)ethyl)-1,4-diazepan-5-yl)methyl)-2-naphthamide]
< 1000 | CC[C@@H](CN1CC[C@@H](CNC(=O)c2ccc3cc(Cl)ccc3c2)N[C@H](CCN2CCCCC2)C1=O)c1ccccc1 [Compound 584, 6-chloro-N-(((3R,5S)-2-oxo-1-((R)-2-phenylbutyl)-3-(2-(piperidin-1-yl)ethyl)-1,4-diazepan-5-yl)methyl)-2-naphthamide]

Same assay, conditions: hMC5R binding assay as in Example 102; compounds tested as trifluoroacetate or hydrochloride salts, or as free base

IC50 [nM] | SMILES
< 100 | N=C(N)NCCC[C@@H]1N[C@H](CNC(=O)/C=C/c2ccccc2)CCN(CC(c2ccccc2)c2ccccc2)C1=O [Compound 153, N-(((3S,5S)-1-(2,2-diphenylethyl)-3-(3-guanidinopropyl)-2-oxo-1,4-diazepan-5-yl)methyl)cinnamamide]
< 1000 | NCCC[C@@H]1N[C@H](CNC(=O)/C=C/c2ccccc2)CCN(CC(c2ccccc2)c2ccccc2)C1=O [Compound 213, N-(((3S,5S)-3-(3-aminopropyl)-1-(2,2-diphenylethyl)-2-oxo-1,4-diazepan-5-yl)methyl)cinnamamide]
< 100 | O=C(/C=C/c1ccccc1)NC[C@@H]1CCN(CC(c2ccccc2)c2ccccc2)C(=O)[C@H](CCCN2CCCCC2)N1 [Compound 269, N-(((3S,5S)-1-(2,2-diphenylethyl)-2-oxo-3-(3-(piperidin-1-yl)propyl)-1,4-diazepan-5-yl)methyl)cinnamamide]
< 1000 | NCC[C@@H]1N[C@H](CNC(=O)/C=C/c2ccccc2)CCN(CC(c2ccccc2)c2ccccc2)C1=O [Compound 282, N-(((3S,5S)-3-(2-aminoethyl)-1-(2,2-diphenylethyl)-2-oxo-1,4-diazepan-5-yl)methyl)cinnamamide]
< 1000 | Nc1ccccc1C[C@H]1C(=O)N(CC(c2ccccc2)c2ccccc2)CC[C@H]2CN(C(=O)/C=C/c3ccc(Cl)cc3)CN21 [Compound 453, (5S,9aS)-5-((2-aminobenzyl)-2-(E)-3-(4-chlorophenyl)acryloyl)-7-(2,2-diphenylethyl)hexahydro-1H-imidazo[1,5-d][1,4]diazepin-6(5H)-one]

Same assay, conditions: hMC5R binding assay as in Example 102; compounds tested as trifluoroacetate or hydrochloride salts, or free base

SMILES | IC50 [nM]
O=C(NC[C@@H]1CCN(Cc2cc(Cl)cc(Cl)c2)C(=O)[C@H](CCN2CCOCC2)N1)c1ccc2cc(Cl)ccc2c1 [Compound 555] | < 100
O=C(NC[C@@H]1CCN(Cc2cc(Cl)cc(Cl)c2)C(=O)[C@H](CCN2CCOCC2)N1)c1ccc(Cl)c(Cl)c1 [Compound 556] | < 100
COc1ccc2cc(C(=O)NC[C@@H]3CCN(Cc4cc(Cl)cc(Cl)c4)C(=O)[C@H](CCN4CCCCC4)N3)ccc2c1 [Compound 568] | < 100
